Measured values reported in ChEMBL document CHEMBL3745656, “Discovery of Inhibitors That Overcome the G1202R Anaplastic Lymphoma Kinase Resistance Mutation” (J Med Chem, 2015).

Assays:
in vivo [1] = details: mouse, brain, po, 10 mg/kg
Description: Drug level in mouse brain at 10 mg/kg, po after 8 hrs

in vivo [2] = details: mouse, brain, iv, 2 mg/kg
Description: Drug level in mouse brain at 2 mg/kg, iv after 8 hrs

[3] = Plasma concentration in mouse at 10 mg/kg, po after 8 hrs; format: ADME, organism-based
[4] = Plasma concentration in mouse at 2 mg/kg, iv after 8 hrs; format: ADME, organism-based
[5] = Plasma concentration in mouse at 10 mg/kg, po after 2 hrs; format: ADME, organism-based
[6] = Plasma concentration in mouse at 2 mg/kg, iv after 2 hrs; format: ADME, organism-based

CCc1cc2c(cc1-c1cnn(CC(=O)N(C)C)c1)C(C)(C)c1[nH]c3cc(C#N)ccc3c1C2=O
concentration at 8 h (in vivo [1]): 4 nM
concentration at 8 h (in vivo [2]): 4 nM

CCc1cc2c(cc1-c1cnn(CCCN(C)C)c1)C(C)(C)c1[nH]c3cc(C#N)ccc3c1C2=O
concentration at 8 h [3]: 170 nM
concentration at 8 h [4]: 50 nM
concentration at 8 h (in vivo [2]): 80 nM
concentration at 2 h [5]: 210 nM
concentration at 2 h [6]: 210 nM
